One compound from patent publication US20230240290A1, “USE OF (Z)-3-HEXENYL ESTERS AND METHOD FOR PROTECTING PLANTS AGAINST PESTS” (UNIVERSITAT POLITÈCNICA DE VALÈNCIA, priority 2020, published 2023) can be followed below.

SMILES strings stand for the structures.

In experiment [1] the test system is PIN2 (marker gene for the jasmonic acid signaling pathway). In words: Semi-field release assay, transcriptional response of PIN2 in tomato plants. The experiment is classed as in vivo. To be noted: 4 weeks. How it is done: Two different types of polymeric emitters were used to test the activation level that different emission levels of (Z)-3-hexenyl propionate can provide: 4-mL low-density (LD) polyethylene vial and 4-mL high-density (HD) polyethylene vial. The highest emission level (5 mg/day) was achieved through previous laboratory studies with LD dispensers loaded with 20 mg of the pure substance. The lowest emission level (0.01 mg/day) was provided by HD vials loaded with a 1:100 mixture of (Z)-3-hexenyl propionate and paraffinic oil (0.02:2; g:g). The emission kinetics of the emitters used during the experiments was controlled by studying weight loss (gravimetric method). […] The difference in weight recorded in each period will be the emitted quantity of the substance for each type of dispenser. To obtain the mean emission level of each dispenser, the recorded weights (y) are related to the aging time (x) using a multiple regression analysis.
Once the mentioned emission levels have been established, 5 and 0.01 mg/day/dispenser, tomato plants were exposed to the different emission levels through an experiment under semi-field conditions in a glass greenhouse. […] Environmental conditions were monitored and recorded using a Mithra clima data logger (ver. 1.01.03, Priva nutricontrol Ibérica S.L). […]

For experiment [2], the system named is LOX2 (precursor of JA jasmonic acid). As to the kind of experiment: Transcriptional response of LOX2 in Carrizo citrange plants exposed to the volatile. Conditions: intact Carrizo citrange plants exposed 24 h; n=6. The experiment is classed as in vivo. How it is done: Two weeks after seed germination, the seedlings were individually transplanted into pots (8×8×8 cm). The plants were kept in a greenhouse with a plastic cover at approximate climatic conditions of 25±5° C., a relative humidity of 65%±5%, and a natural light photoperiod, about 14:10 h (light:dark). Carrizo citrange plants that had not received any pesticide treatment at 8 weeks of age (approximately 20 cm tall) were used. The volatile (Z)-3-hexenyl propanoate was obtained from Sigma-Aldrich (St. Louis, Mo., USA). The volatile was exposed by using a 2×2 cm piece of filter paper on which 10 μl of a solution containing the corresponding volatile at a concentration of 1:10,000 [(Z)-3-hexenyl propanoate:methanol] was impregnated as an emitting source of the corresponding volatile (Pérez-Hedo, M. et al. Biocontrol, 63: 203-213 (2018)). […]
The methodology followed for the extraction and quantification of gene expression was described by Pérez-Hedo et al. Journal of Pest Science 3: 543-554 (2015). The primers used were forward primer: 5′-[…]-3′ (SEQ ID NO: 11) and reverse primer: 5′-[…]-3′ (SEQ ID NO: 12) for the quantification of LOX2, forward primer: 5′-[…]-3′ (SEQ ID NO: 13) and reverse primer: 5′-[…]-3′ (SEQ ID NO: 14) for PAL and forward primer: 5′-[…]-3′ (SEQ ID NO: 15) and reverse primer: 5′-[…]-3′ (SEQ ID NO: 16) for the NPR5 gene. […]

On to `CC/C=C\CCOC(=O)CC` [(Z)-3-hexenyl propanoate], for which the “Transcriptional response of PIN2 (jasmonic acid pathway)” value in experiment [1] (0.01 mg/day emission, HD polyethylene vial) was “did not affect exposed plants”; in experiment [1] (5 mg/day emission, LD polyethylene vial), “significantly activated”. Moreover, the “Transcriptional response of LOX2 compared to control” value in experiment [2] is “significantly overexpressed”.
